Laboratory results from patent publication US9493441B2, “Acyclic cyanoethylpyrazoles as janus kinase inhibitors” (Merck Sharp & Dohme Corp., priority 2011, dated 2016).

How the values were obtained:
JAK1 = JAK1 (Homo sapiens (Human), UniProt P23458); assay: Jak biochemical HTRF assay, JAK1; conditions: JAK1 IC50 (nM), recombinant GST-tagged catalytic domain, [ATP] 31.8 μM
JAK2 = JAK2 (Homo sapiens (Human), UniProt O60674); assay: Jak biochemical HTRF assay, JAK2; conditions: JAK2 IC50 (nM), recombinant GST-tagged catalytic domain, [ATP] […]
JAK2, sequence (O60674 849-1124): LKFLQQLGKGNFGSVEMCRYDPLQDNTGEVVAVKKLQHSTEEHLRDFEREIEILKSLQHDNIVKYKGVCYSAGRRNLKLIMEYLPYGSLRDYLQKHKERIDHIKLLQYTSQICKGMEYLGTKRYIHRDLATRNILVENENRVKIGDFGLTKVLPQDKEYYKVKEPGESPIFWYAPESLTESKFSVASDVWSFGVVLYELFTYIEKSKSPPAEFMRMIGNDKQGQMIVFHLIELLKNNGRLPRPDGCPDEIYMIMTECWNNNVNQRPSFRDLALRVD

JAK1, sequence (P23458 875-1153): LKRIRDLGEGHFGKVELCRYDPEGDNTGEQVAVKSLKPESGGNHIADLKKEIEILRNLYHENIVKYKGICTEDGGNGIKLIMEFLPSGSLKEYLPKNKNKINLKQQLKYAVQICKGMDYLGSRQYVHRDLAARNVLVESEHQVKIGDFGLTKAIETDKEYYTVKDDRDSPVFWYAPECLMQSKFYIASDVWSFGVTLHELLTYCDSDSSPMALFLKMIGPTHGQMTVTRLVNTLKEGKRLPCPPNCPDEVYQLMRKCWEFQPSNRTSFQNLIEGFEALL

| SMILES | IC50 (JAK1) [nM] | IC50 (JAK2) [nM] |
| --- | --- | --- |
| N#CCC(C1CCCC1)n1cc(C(N)=O)c(Nc2ccc(C(=O)N3CCS(=O)(=O)CC3)cc2)n1 (stereo not drawn) [Example 1-5, 1-(2-cyano-1-cyclopentylethyl)-3-({4-[(1,1-dioxidothiomorpholin-4-yl)carbonyl]phenyl}amino)-1H-pyrazole-4-carboxamide] | 9 | 31 |
| CC(CC#N)n1cc(C(N)=O)c(Nc2ccccc2)n1 (stereo not drawn) [Example 1-6, 1-(2-cyano-1-methylethyl)-3-(phenylamino)-1H-pyrazole-4-carboxamide] | 61 | 417 |
| CCC(CC#N)n1cc(C(N)=O)c(Nc2ccccc2)n1 (stereo not drawn) [Example 1-7, 1-[1-(cyanomethyl)propyl]-3-(phenylamino)-1H-pyrazole-4-carboxamide] | 48 | 546 |
| CC(C)(O)c1cn(Cc2cccc(Nc3nn(C(CC#N)C4CCCC4)cc3C(N)=O)c2)nn1 (stereo not drawn) [Example 1-8, 1-(2-cyano-1-cyclopentylethyl)-3-[(3-{[4-(1-hydroxy-1-methylethyl)-1H-1,2,3-triazol-1-yl]methyl}phenyl)amino]-1H-pyrazole-4-carboxamide] | 194 | 999 |
| N#CCC(C1CCOCC1)n1cc(C(N)=O)c(Nc2ccccc2)n1 (stereo not drawn) [Example 1-9, 1-[2-cyano-1-(tetrahydro-2H-pyran-4-yl)ethyl]-3-(phenylamino)-1H-pyrazole-4-carboxamide] | 241 | 1480 |
| N#CCC(CC1CCOCC1)n1cc(C(N)=O)c(Nc2ccccc2)n1 (stereo not drawn) [Example 1-10, 1-[2-cyano-1-(tetrahydro-2H-pyran-4-ylmethyl)ethyl]-3-(phenylamino)-1H-pyrazole-4-carboxamide] | 289 | 1480 |
| CC(C)C(CC#N)n1cc(C(N)=O)c(Nc2ccccc2)n1 (stereo not drawn) [Example 1-11, 1-[1-(cyanomethyl)-2-methylpropyl]-3-(phenylamino)-1H-pyrazole-4-carboxamide] | 64 | 641 |
| CC(C)(C)CC(CC#N)n1cc(C(N)=O)c(Nc2ccccc2)n1 (stereo not drawn) [Example 1-13] | 598 | 1480 |
| N#CCC(C1CCOC1)n1cc(C(N)=O)c(Nc2ccccc2)n1 (stereo not drawn) [Example 1-14, 1-[2-cyano-1-(tetrahydrofuran-3-yl)ethyl]-3-(phenylamino)-1H-pyrazole-4-carboxamide] | 126 | 1400 |
| N#CCC(C1CCCOC1)n1cc(C(N)=O)c(Nc2ccccc2)n1 (stereo not drawn) [Example 1-15, 1-[2-cyano-1-(tetrahydro-2H-pyran-3-yl)ethyl]-3-(phenylamino)-1H-pyrazole-4-carboxamide] | 501 | 1480 |
| CC(CC#N)n1cc(C(N)=O)c(Nc2ccc(C(=O)N3CCS(=O)(=O)CC3)cc2)n1 (stereo not drawn) [Example 1-16, 1-(2-cyano-1-methylethyl)-3-({4-[(1,1-dioxidothiomorpholin-4-yl)carbonyl]phenyl}amino)-1H-pyrazole-4-carboxamide] | 19 | 45 |
| CCC(CC#N)n1cc(C(N)=O)c(Nc2ccc(C(=O)N3CCS(=O)(=O)CC3)cc2)n1 (stereo not drawn) [Example 1-17, 1-[1-{cyanomethyl)propyl]-3-({4-[(1,1-dioxidothiomorpholin-4-yl)carbonyl]phenyl}amino)-1H-pyrazole-4-carboxamide] | 19 | 74 |
| CC(CC#N)(C1CC1)n1cc(C(N)=O)c(Nc2ccccc2)n1 (stereo not drawn) [Example 1-18, 1-(2-cyano-1-cyclopropyl-1-methylethyl)-3-(phenylamino)-1H-pyrazole-4-carboxamide] | 195 | 413 |
| N#CCC(C1CCC1)n1cc(C(N)=O)c(Nc2ccccc2)n1 (stereo not drawn) [Example 1-19, 1-(2-cyano-1-cydobutylethyl)-3-(phenylamino)-1H-pyrazole-4-carboxamide] | 31 | 272 |
| N#CCC(C1CCCC1)n1cc(C(N)=O)c(Nc2ccccc2)n1 (stereo not drawn) [Example 1-20, 1-(2-cyano-1-cyclopentylethyl)-3-(phenylamino)-1H-pyrazole-4-carboxamide] | 69 | 474 |
| CC(C)(CC#N)n1cc(C(N)=O)c(Nc2ccccc2)n1 [Example 1-21, 1-(2-cyano-1,1-dimethylethyl)-3-(phenylamino)-1H-pyrazole-4-carboxamide] | 12 | 103 |
| N#CCC(n1cc(C(N)=O)c(Nc2ccccc2)n1)C(F)(F)F (stereo not drawn) [Example 2, 1-(3-Cyano-1,1,1-trifluoropropan-2-yl)-3-(phenylamino)-1H-pyrazole-4-carboxamide] | 124 | 339 |
| CC(C)(C)OC(=O)N1CCC(C(CC#N)n2cc(C(N)=O)c(Nc3ccc(F)cc3)n2)CC1 (stereo not drawn) [Example 3-1, tert-Butyl 4-(1-[4-carbamoyl-3-[(4-fluorophenyl)amino]-1H-pyrazol-1-yl]-2-cyanoethyl)piperidine-1-carboxylate] | 49 | 1500 |

| SMILES | IC50 (JAK1) [nM] | IC50 (JAK2) [nM] |
| --- | --- | --- |
| CC(C)(C)OC(=O)N1CCC(F)(C(CC#N)n2cc(C(N)=O)c(Nc3ccccc3)n2)CC1 (stereo not drawn) [Example 3-2, tert-butyl 4-{1-[4-carbamoyl-3-(phenylamino)-1H-pyrazol-1-yl]-2-cyanoethyl}-4-fluoropiperidine-1-carboxylate] | 99 | 1500 |
| CC(C)(C)OC(=O)N1CCC(C(C)(CC#N)n2cc(C(N)=O)c(Nc3ccccc3)n2)CC1 (stereo not drawn) [Example 3-3, tert-butyl 4-{2-[4-carbamoyl-3-(phenylamino)-1H-pyrazol-1-yl]-1-cyanopropan-2-yl}piperidine-1-carboxylate] | 5 | 236 |
| CS(=O)(=O)c1ccc(Nc2nn(C(CC#N)C3CC3)cc2C(N)=O)cc1 (stereo not drawn) [Example 4-1, 1-(2-Cyano-1-cyclopropylethyl)-3-{[4-(methylsulfonyl)phenyl]amino}-1H-pyrazole-4-carboxamide] | 3 | 28 |
| CC(C)(C)OC(=O)N1Cc2cc(Nc3nn(C(CC#N)C4CC4)cc3C(N)=O)ccc2C1=O (stereo not drawn) [Example 4-2, tert-butyl 5-{[4-carbamoyl-1-(2-cyano-1-cyclopropylethyl)-1H-pyrazol-3-yl]amino}-1-oxo-1,3-dihydro-2H-isoindole-2-carboxylate] | 2 | 35 |
| N#CCC(C1CC1)n1cc(C(N)=O)c(Nc2ccc(C(F)(F)F)cc2)n1 (stereo not drawn) [Example 4-3, 1-(2-cyano-1-cyclopropylethyl)-3-{[4-(trifluoromethyl)phenyl]amino}-1H-pyrazole-4-carboxamide] | 12 | 110 |
| N#CCC(C1CC1)n1cc(C(N)=O)c(Nc2cccc(C(F)(F)F)c2)n1 (stereo not drawn) [Example 4-4, 1-(2-cyano-1-cyclopropylethyl)-3-{[3-(trifluoromethyl)phenyl]amino}-1H-pyrazole-4-carboxamide] | 82 | 394 |
| N#CCC(C1CC1)n1cc(C(N)=O)c(Nc2ccccc2F)n1 (stereo not drawn) [Example 4-5, 1-(2-cyano-1-cyclopropylethyl)-3-[(2-fluorophenyl)amino]-1H-pyrazole-4-carboxamide] | 360 | 1480 |
| N#CCC(C1CC1)n1cc(C(N)=O)c(Nc2cccnc2)n1 (stereo not drawn) [Example 4-6, 1-(2-cyano-1-cyclopropylethyl)-3 - (pyridin-3-ylamino)-1H-pyrazole-4-carboxamide] | 33 | 76 |
| N#CCCc1cccc(Nc2nn(C(CC#N)C3CC3)cc2C(N)=O)c1 (stereo not drawn) [Example 4-7, 1-(2-cyano-1-cyclopropylethyl)-3-{[3-(2-cyanoethyl)phenyl]amino}-1H-pyrazole-4-carboxamide] | 13 | 73 |
| N#CCc1ccc(Nc2nn(C(CC#N)C3CC3)cc2C(N)=O)cc1 (stereo not drawn) [Example 4-8, 1-(2-cyano-1-cyclopropylethyl)-3-{[4-(cyanomethyl)phenyl]amino}-1H-pyrazole-4-carboxamide] | 5 | 24 |
| N#CCC(C1CC1)n1cc(C(N)=O)c(Nc2cccc(CO)c2)n1 (stereo not drawn) [Example 4-10, 1-(2-cyano-1-cyclopropylethyl)-3-{[3-(hydroxymethyl)phenyl]amino}-1H-pyrazole-4-carboxamide] | 12 | 41 |
| N#CCC(C1CC1)n1cc(C(N)=O)c(Nc2ccc(F)cc2)n1 (stereo not drawn) [Example 4-11, l-(2-cyano-1-cyclopropylethyl)-3-[(4-fluorophenyl)amino]-1H-pyrazole-4-carboxamide] | 9 | 66 |
| COc1cc(Nc2nn(C(CC#N)C3CC3)cc2C(N)=O)ccn1 (stereo not drawn) [Example 4-12, 1-(2-cyano-1-cyclopropylethyl)-3-[(2-methoxypyridin-4-yl)amino]-1H-pyrazole-4-carboxamide] | 7 | 66 |
| CNC(=O)c1ccc(Nc2nn(C(CC#N)C3CC3)cc2C(N)=O)cc1 (stereo not drawn) [Example 4-13, 1-(2-cyano-1-cyclopropylethyl)-3-{[4-(methylcarbamoyl)phenyl]amino}-1H-pyrazole-4-carboxamide] | 2 | 21 |
| N#CCC(C1CC1)n1cc(C(N)=O)c(Nc2ccc(C#N)cc2)n1 (stereo not drawn) [Example 4-14, 1-(2-cyano-1-cyclopropylethyl)-3-[(4-cyanophenyl)amino]-1H-pyrazole-4-carboxamide] | 5 | 33 |
| N#CCC(C1CC1)n1cc(C(N)=O)c(Nc2ccc3ccncc3c2)n1 (stereo not drawn) [Example 4-15, 1-(2-cyano-1-cyclopropylethyl)-3-(isoquinolin-7-ylamino)-1H-pyrazole-4-carboxamide] | 9 | 39 |
| N#CCC(C1CC1)n1cc(C(N)=O)c(Nc2cccc(C#N)c2)n1 (stereo not drawn) [Example 4-16, 1-(2-cyano-1-cyclopropylethyl)-3-[(3-cyanophenyl)amino]-1H-pyrazole-4-carboxamide] | 19 | 64 |
| N#CCC(C1CC1)n1cc(C(N)=O)c(Nc2ccc(N3CCOCC3)cc2)n1 (stereo not drawn) [Example 4-17, 1-(2-cyano-1-cyclopropylethyl)-3-[(4-morpholin-4-ylphenyl)amino]-1H-pyrazole-4-carboxamide] | 13 | 43 |
